The values below come from paper PMC9271048, “Probing strigolactone perception mechanisms with rationally designed small-molecule agonists stimulating germination of root parasitic weeds” (Nature Communications, 2022).

“Also recorded” adds a separate entry of the source.

In test [1] the test system is ShHTL7-AtMAX2 interaction. In words: Yeast two-hybrid assay ShHTL7-AtMAX2. In kind it is cell-based, Striga hermonthica. On the procedure: (§1) To construct plasmids for yeast two-hybrid assays, the CDS of ShHTL7 and AtD14 were cloned into yeast expression vector pBrigde to generate BD-ShHTL7 and BD-AtD14, and the CDS of ShMAX2, AtMAX2, SMAX1 were cloned into pGADT7 to make Gal4 DNA activation domain (AD) constructs, respectively. Primers used for yeast expression vector construction are listed in Supplementary Table 6. Yeast two-hybrid assays were performed using the Yeastmaker Yeast Transformation System 2 (Clontech). In brief, Yeast AH109 cells were co-transformed with specific bait and prey constructs and coated on selective growth medium SD/-Leu-Trp for 3 days at 30 °C, pick the positive constructs into liquid selective growth medium SD/-Leu-Trp shaking for 36 h at 30 °C. Washed yeast cells three times and diluted, made sure OD600 reached 2.5, then serial 10-fold dilutions of yeast cultures were spotted onto selective growth mediums that were supplemented with different concentrations of rac-GR24 and tested molecules, respectively. All yeast transformants were grown on a selective growth medium at 30 °C for 3 days.

Test [2] addresses ShHTL7 (Striga hermonthica, UniProt A0A0M3PNA2). In words: Mass spectrometric analysis of covalent modification of ShHTL7. In kind it is biochemical. Particulars: for mass increase of compound-treated ShHTL7 protein: Q-TOF MS of full-length protein, modification on His246; for covalent modification of ShHTL7: MS of compound-treated ShHTL7. An excerpt: This was consistent with the hydrolysis of natural and synthetic SLs, in which, the (2′R)-isomers are more prone to hydrolysis by ShHTL7 than the (2′S)-isomers[26],[40]. […] Based on the above observations, we inferred that (S)-4a may have similar biochemical properties as 2′R-configured SLs. We then examined whether (S)-4a binding, just as for rac-GR24, would result in a covalently linked molecule in ShHTL7 by using Q-TOF mass spectrometry (SYNAPT-G2-Si, Waters company) analysis. […] For (R)-4a and 4g, a weak peak (increase of 95 Da or 94 Da) of similar modification was found, respectively (Fig. 3). A similar modification was not observed in 4h and 4i treated samples (Supplementary Fig. 12b, c). To furtherly identify the specific modification of the increased mass of 94 Da or 95 Da, we incubated (R)-4a, (S)-4a, and 4g with ShHTL7, followed by gel digestion and MS/MS analysis. […] No covalently linked molecule presence was identified in 4h treated ShHTL7 (Supplementary Fig. 12b). We assume that this is due to the fact that the N-CH3 D-lactam modified His246 is more reactive, resulting in quick decomposition of the intermediate.
For LC-MS analysis: a 200 μL reaction solution (100 mM HEPES, 150 mM NaCl, pH 7.0) containing 10, or 400 μM of tested samples 4a, (R)- and (S)-4a, and 4g-i, and 100 μg of recombinant ShHTL7 or its mutants was incubated at 25 °C for 30 min. Subsequently, the solution was filtered and analyzed by a nanoACQUITY UPLC system, which was directly interfaced with an SYNAPT-G2-Si mass spectrometer produced by Waters Company. For LC-MS/MS analysis, the above chemicals treated ShHTL7 reaction solution was subjected to the SDS-PAGE analysis. The corresponding protein band around 30 KDa was excised, respectively, then digested with trypsin (Promega) in NH4HCO3 solution (50 mM) at 37 °C for 24 h[23],[26]–[28]. The covalent modification of C5H5O2/C6H6O on the peptide was analyzed by a Thermo-Dionex Ultimate 3000 HPLC system, which was directly interfaced with a Thermo Orbitrap Fusion Lumos mass spectrometer. MS-MS spectra are generated by pLabel software[53],[54].

For test [3], the system named is max4-1. Kind of test: Arabidopsis shoot branching assay. The format is in vivo, Arabidopsis thaliana. The settings on record: max4-1, 1 μM; Fig. 4c source data. On the procedure:
(§2) For Arabidopsis root hair assay, Arabidopsis thaliana (Col-0) seeds were surface sterilized by using 1% NaClO solution for 60 s and 75% ethanol solution for 60 s, and then washed by sterilized distilled water five times. The sterilized seeds were sowed on 1/2 MS media (2.202 g/L Murashige and Skoog basal salts, 0.5 g/L MES, 10 g/L sucrose, and 10 g/L agar, pH 5.7) which contained indicated concentrations of compounds. 0.1% DMSO was used as a negative control. The plates were placed 4 days at 4 °C and then placed vertically under fluorescent white light (100–150 μmol m^−2 s^−1) with 16 h light and 8 h dark at 20 ± 1 °C for 15 days[17],[55]. The root hairs were imaged by OLYMPUS (U-HGLGPS), and the lengths were analyzed by ImageJ. The experiments were repeated three times. For Arabidopsis shoot branching assay: Col-0 and max4-1 seeds were used in this experiment. Seeds surface sterilization was sterilized as described above. The Arabidopsis seedlings were placed on top of the cut black microcentrifuge tubes filled with 1/2 MS. The tubes were placed 4 days at 4 °C and then moved to fluorescent white light (100–150 μmol m^−2 s^−1) with 16 h light and 8 h dark at 20 ± 1 °C for 7 days[26]. The germinated seedlings were grown on hydroponic culture solutions (containing indicated concentrations of 4a, (R)- and (S)-4a), with the solution containing 0.01% DMSO as the negative control. The solutions were renewed every week. After 4 weeks, the numbers of rosette axillaries were analyzed.

Test [4] concerns ShHTL7-ShMAX2 interaction. In words: Yeast two-hybrid assay ShHTL7-ShMAX2. The format is cell-based, Striga hermonthica. How it is done: as §1
Test [5] relates to Arabidopsis thaliana (Col-0). In words: Arabidopsis root hair assay. In kind it is in vivo. The settings on record: Col-0 seedlings on 1/2 MS medium, 1 μM; Supplementary Fig. 15; in µm (unit assumed). On the procedure: as §2
type Arabidopsis. a, Representative primary root segments of Col-0 seedlings growing on 1/2 MS
medium with or without 1 μM tested chemicals. Scale bar, […]. b, The average length of root
hair is presented as means ± SD (n = 3 biologically independent experiments).
(1 picture or pasted object on this page, not shown here)

Sequence of ShHTL7 (A0A0M3PNA2 entry or part of it): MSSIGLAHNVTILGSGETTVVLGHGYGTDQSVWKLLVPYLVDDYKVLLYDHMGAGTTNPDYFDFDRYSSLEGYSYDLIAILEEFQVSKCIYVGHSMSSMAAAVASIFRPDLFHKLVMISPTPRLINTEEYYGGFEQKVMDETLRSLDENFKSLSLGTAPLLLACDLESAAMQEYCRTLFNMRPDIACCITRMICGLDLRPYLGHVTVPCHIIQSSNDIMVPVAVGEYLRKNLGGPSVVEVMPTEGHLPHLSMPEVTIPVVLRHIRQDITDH

With `CC1=CC(OC(=O)N2CCN(C(=O)COc3ccc(Br)cc3C)CC2)CC1=O` (centres unmarked) [4g], the “induction of ShHTL7-AtMAX2 interaction (Y2H)” value in test [1] (200 μM) is given as “only weak ligand-induced interactions”. Further, in test [2], the “mass increase of compound-treated ShHTL7 protein” value (from here on “mass increase”) was found to be 94 Da.
As to `CC1=CC(OC(=O)N2CCN(C(=O)COc3ccc(Br)cc3C)CC2)OC1=O` (centres unmarked) [4a], in test [3], the “No. of axillary shoots, source data average” value (“No. of axillary shoots” below) was 3.5. In test [1] (1 μM), the “induction of ShHTL7-AtMAX2 interaction (Y2H)” value was “strongly induce the interaction”. Besides, the “induction of ShHTL7-ShMAX2 interaction (Y2H)” value in test [4] (0.01 μM (10 nM)) is recorded as “could still promote the ShHTL7-ShMAX2 interaction”; in test [4] (1 μM) it was “strongly induce the interaction”. The “average length of root hair, source data average” value (“average length of root hair” below) in test [5] came out at 163.912.
In the case of `CC1=CC(OC(=O)N2CCN(C(=O)COc3ccc(Br)cc3C)CC2)N(C)C1=O` (centres unmarked) [4h], the “covalent modification of ShHTL7” value in test [2] was “not observed”.
`CC1=CC(CC(=O)N2CCN(C(=O)COc3ccc(Br)cc3C)CC2)OC1=O` (centres unmarked) [4i]: in test [1] (200 μM), the “induction of ShHTL7-AtMAX2 interaction (Y2H)” value was “almost no ligand-induced interactions were observed”. Also, the “induction of ShHTL7-ShMAX2 interaction (Y2H)” value in test [4] (200 μM) is given as “almost no ligand-induced interactions were observed”. For the same compound, the “covalent modification of ShHTL7” value in test [2] is recorded as “not observed”.
`CC1=C[C@@H](OC(=O)N2CCN(C(=O)COc3ccc(Br)cc3C)CC2)OC1=O` [(R)-4a]: the “No. of axillary shoots” value in test [3] was determined as 3.667. Also, the “induction of ShHTL7-AtMAX2 interaction (Y2H)” value in test [1] (200 μM) was “did induce the interaction”; in test [1] (1 and 5 μM), “no ShHTL7-SMAX1 or ShHTL7-AtMAX2 interactions were detected”. In test [5], the “average length of root hair” value stood at 172.727. Moreover, in test [2], the “mass increase” value is 95 Da.
With `CC1=C[C@H](O/C=C2/C(=O)O[C@@H]3c4ccccc4C[C@H]23)OC1=O` (racemic) [rac-GR24, reference compound], the “average length of root hair” value in test [5] worked out at 474.342.
As to `CC1=C[C@H](OC(=O)N2CCN(C(=O)COc3ccc(Br)cc3C)CC2)OC1=O` [(S)-4a], the “No. of axillary shoots” value in test [3] is 2.6. Also, the “induction of ShHTL7-AtMAX2 interaction (Y2H)” value in test [1] (1 μM) is “strongly induce the interaction”. Also, the “induction of ShHTL7-ShMAX2 interaction (Y2H)” value in test [4] (0.01 μM (10 nM)) is on record as “could still promote the ShHTL7-ShMAX2 interaction; also recorded: promoted ShHTL7-ShMAX2 interaction”; in test [4] (1 μM), “strongly induce the interaction”. Besides, the “average length of root hair” value in test [5] amounted to 211.816. In addition, in test [2], the “mass increase” value was found to be 94 Da.
